Results reported in PubChem BioAssay (NCI).
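GI50 = concentration required for 50% inhibition of growth. The concentration for full growth arrest is given as TGI.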

Legend:
Experiment in all cases: inhibition of tumour cell growth, NCI panel, 384-well format
786-0 renal = system: 786-0 renal
A498 renal = system: A498 renal
A549 NSCLC = system: A549 NSCLC
ACHN renal = system: ACHN renal
BT-549 breast = system: BT-549 breast
CAKI-1 renal = system: CAKI-1 renal
CCRF-CEM leukemia = system: CCRF-CEM leukemia
COLO 205 colon = system: COLO 205 colon
DU-145 prostate = system: DU-145 prostate
EKVX NSCLC = system: EKVX NSCLC
HCC-2998 colon = system: HCC-2998 colon
HCT-116 colon = system: HCT-116 colon
HCT-15 colon = system: HCT-15 colon
HL-60(TB) leukemia = system: HL-60(TB) leukemia
HOP-62 NSCLC = system: HOP-62 NSCLC
HOP-92 NSCLC = system: HOP-92 NSCLC
HS 578T breast = system: HS 578T breast
HT29 colon = system: HT29 colon
IGROV1 ovarian = system: IGROV1 ovarian
K-562 leukemia = system: K-562 leukemia
KM12 colon = system: KM12 colon
LOX IMVI melanoma = system: LOX IMVI melanoma
M14 melanoma = system: M14 melanoma
MALME-3M melanoma = system: MALME-3M melanoma
MCF7 breast = system: MCF7 breast
MDA-MB-231 breast = system: MDA-MB-231 breast
MDA-MB-435 melanoma = system: MDA-MB-435 melanoma
MDA-MB-468 breast = system: MDA-MB-468 breast
MOLT-4 leukemia = system: MOLT-4 leukemia
NCI-H226 lung = system: NCI-H226 lung
NCI-H23 lung = system: NCI-H23 lung
NCI-H322M lung = system: NCI-H322M lung
NCI-H460 NSCLC = system: NCI-H460 NSCLC
NCI-H522 lung = system: NCI-H522 lung
NCI/ADR-RES ovarian = system: NCI/ADR-RES ovarian
OVCAR-3 ovarian = system: OVCAR-3 ovarian
OVCAR-4 ovarian = system: OVCAR-4 ovarian
OVCAR-8 ovarian = system: OVCAR-8 ovarian
PC-3 prostate = system: PC-3 prostate
RPMI-8226 leukemia = system: RPMI-8226 leukemia
RXF 393 renal = system: RXF 393 renal
SF-268 CNS = system: SF-268 CNS
SF-295 CNS = system: SF-295 CNS
SF-539 CNS = system: SF-539 CNS
SK-MEL-28 melanoma = system: SK-MEL-28 melanoma
SK-MEL-5 melanoma = system: SK-MEL-5 melanoma
SK-OV-3 ovarian = system: SK-OV-3 ovarian
SN12C renal = system: SN12C renal
SNB-19 CNS = system: SNB-19 CNS
SNB-75 CNS = system: SNB-75 CNS
SR leukemia = system: SR leukemia
SW-620 colon = system: SW-620 colon
T-47D breast = system: T-47D breast
TK-10 renal = system: TK-10 renal
U251 glioblastoma = system: U251 glioblastoma
UACC-257 melanoma = system: UACC-257 melanoma
UACC-62 melanoma = system: UACC-62 melanoma
UO-31 renal = system: UO-31 renal

Question: With `CCCN(CCC)C(=O)C1=Cc2ccc(-c3ccc(C(=O)N4CCCC4)cc3)cc2N=C(N)C1` as the compound, how does the GI50 ([…]-0 renal) read?
Answer: 4.81 µM

Question: What about the TGI (786-0 renal) of the same compound?
Answer: 16.6 µM

Question: And the GI50 (A498 renal)?
Answer: 3.93 µM

Question: And the TGI (A498 renal)?
Answer: 15.3 µM

Question: And the GI50 (A549 NSCLC)?
Answer: 6.2 µM

Question: What about the TGI (A549 NSCLC) of the same compound?
Answer: 19.9 µM

Question: And the GI50 (ACHN renal)?
Answer: 10.8 µM

Question: What about the TGI (ACHN renal) of the same compound?
Answer: 23.5 µM

Question: What about the GI50 (BT-549 breast) of the same compound?
Answer: 4.19 µM

Question: What about the TGI (BT-549 breast) of the same compound?
Answer: 14.8 µM

Question: And the GI50 (CAKI-1 renal)?
Answer: 5.86 µM

Question: What about the TGI (CAKI-1 renal) of the same compound?
Answer: 19.2 µM

Question: What about the GI50 (CCRF-CEM leukemia) of the same compound?
Answer: 3.53 µM

Question: What about the TGI (CCRF-CEM leukemia) of the same compound?
Answer: 11.2 µM

Question: And the GI50 (COLO 205 colon)?
Answer: 4.89 µM

Question: What about the TGI (COLO 205 colon) of the same compound?
Answer: 16.9 µM

Question: And the GI50 (DU-145 prostate)?
Answer: 9.15 µM

Question: What about the TGI (DU-145 prostate) of the same compound?
Answer: 22.2 µM

Question: And the GI50 (EKVX NSCLC)?
Answer: 3.93 µM

Question: What about the TGI (EKVX NSCLC) of the same compound?
Answer: 16.5 µM

Question: And the GI50 (HCC-2998 colon)?
Answer: 5.42 µM

Question: What about the TGI (HCC-2998 colon) of the same compound?
Answer: 18.3 µM

Question: And the GI50 (HCT-116 colon)?
Answer: 3.47 µM

Question: And the TGI (HCT-116 colon)?
Answer: 13.1 µM

Question: And the GI50 (HCT-15 colon)?
Answer: 3.48 µM

Question: What about the TGI (HCT-15 colon) of the same compound?
Answer: 14.1 µM

Question: What about the GI50 (HL-60(TB) leukemia) of the same compound?
Answer: 1.52 µM

Question: What about the TGI (HL-60(TB) leukemia) of the same compound?
Answer: 2.86 µM

Question: What about the GI50 (HOP-62 NSCLC) of the same compound?
Answer: 3.07 µM

Question: And the TGI (HOP-62 NSCLC)?
Answer: 11.7 µM

Question: What about the GI50 (HOP-92 NSCLC) of the same compound?
Answer: 4 µM

Question: What about the TGI (HOP-92 NSCLC) of the same compound?
Answer: 15.7 µM

Question: What about the GI50 (HS 578T breast) of the same compound?
Answer: 3.34 µM

Question: And the TGI (HS 578T breast)?
Answer: 12 µM

Question: What about the GI50 (HT29 colon) of the same compound?
Answer: 3.41 µM

Question: What about the TGI (HT29 colon) of the same compound?
Answer: 11.9 µM

Question: And the GI50 (IGROV1 ovarian)?
Answer: 10 µM

Question: What about the TGI (IGROV1 ovarian) of the same compound?
Answer: 23.4 µM

Question: And the GI50 (K-562 leukemia)?
Answer: 2.52 µM

Question: And the TGI (K-562 leukemia)?
Answer: 10.3 µM

Question: What about the GI50 (KM12 colon) of the same compound?
Answer: 2.81 µM

Question: And the TGI (KM12 colon)?
Answer: 11.2 µM

Question: And the GI50 (LOX IMVI melanoma)?
Answer: 5.71 µM

Question: What about the TGI (LOX IMVI melanoma) of the same compound?
Answer: 18.2 µM

Question: And the GI50 (M14 melanoma)?
Answer: 3.76 µM

Question: And the TGI (M14 melanoma)?
Answer: 13 µM

Question: What about the GI50 (MALME-3M melanoma) of the same compound?
Answer: 3.81 µM

Question: And the TGI (MALME-3M melanoma)?
Answer: 14.6 µM

Question: What about the GI50 (MCF7 breast) of the same compound?
Answer: 3.11 µM

Question: And the TGI (MCF7 breast)?
Answer: 12.1 µM

Question: And the GI50 (MDA-MB-231 breast)?
Answer: 5.09 µM

Question: And the TGI (MDA-MB-231 breast)?
Answer: 17.5 µM

Question: What about the GI50 (MDA-MB-435 melanoma) of the same compound?
Answer: 2.2 µM

Question: And the TGI (MDA-MB-435 melanoma)?
Answer: 5.73 µM

Question: What about the GI50 (MDA-MB-468 breast) of the same compound?
Answer: 1.63 µM

Question: What about the TGI (MDA-MB-468 breast) of the same compound?
Answer: 5.02 µM

Question: What about the GI50 (MOLT-4 leukemia) of the same compound?
Answer: 2.51 µM

Question: What about the TGI (MOLT-4 leukemia) of the same compound?
Answer: 8.74 µM

Question: What about the GI50 (NCI-H226 lung) of the same compound?
Answer: 10.7 µM

Question: And the TGI (NCI-H226 lung)?
Answer: 23.8 µM

Question: What about the GI50 (NCI-H23 lung) of the same compound?
Answer: 3.67 µM

Question: What about the TGI (NCI-H23 lung) of the same compound?
Answer: 14.7 µM

Question: And the GI50 (NCI-H322M lung)?
Answer: 7.93 µM

Question: And the TGI (NCI-H322M lung)?
Answer: 20.6 µM

Question: What about the GI50 (NCI-H460 NSCLC) of the same compound?
Answer: 2.23 µM

Question: And the TGI (NCI-H460 NSCLC)?
Answer: 5.31 µM

Question: And the GI50 (NCI-H522 lung)?
Answer: 2.69 µM

Question: What about the TGI (NCI-H522 lung) of the same compound?
Answer: 10.3 µM

Question: What about the GI50 (NCI/ADR-RES ovarian) of the same compound?
Answer: 12.8 µM

Question: What about the TGI (NCI/ADR-RES ovarian) of the same compound?
Answer: 27.9 µM

Question: What about the GI50 (OVCAR-3 ovarian) of the same compound?
Answer: 2.78 µM

Question: What about the TGI (OVCAR-3 ovarian) of the same compound?
Answer: 6.51 µM

Question: What about the GI50 (OVCAR-4 ovarian) of the same compound?
Answer: 12.4 µM

Question: And the TGI (OVCAR-4 ovarian)?
Answer: 26 µM

Question: And the GI50 (OVCAR-8 ovarian)?
Answer: 8.34 µM

Question: And the TGI (OVCAR-8 ovarian)?
Answer: 21.4 µM

Question: And the GI50 (PC-3 prostate)?
Answer: 3.66 µM

Question: What about the TGI (PC-3 prostate) of the same compound?
Answer: 13.9 µM

Question: And the GI50 (RPMI-8226 leukemia)?
Answer: 1.78 µM

Question: What about the TGI (RPMI-8226 leukemia) of the same compound?
Answer: 5.78 µM

Question: What about the GI50 (RXF 393 renal) of the same compound?
Answer: 2.52 µM

Question: What about the TGI (RXF 393 renal) of the same compound?
Answer: 10.4 µM

Question: And the GI50 (SF-268 CNS)?
Answer: 5.11 µM

Question: What about the TGI (SF-268 CNS) of the same compound?
Answer: 17.6 µM

Question: And the GI50 (SF-295 CNS)?
Answer: 3.42 µM

Question: And the TGI (SF-295 CNS)?
Answer: 12.9 µM

Question: What about the GI50 (SF-539 CNS) of the same compound?
Answer: 3.99 µM

Question: And the TGI (SF-539 CNS)?
Answer: 16.6 µM

Question: What about the GI50 (SK-MEL-28 melanoma) of the same compound?
Answer: 11 µM

Question: What about the TGI (SK-MEL-28 melanoma) of the same compound?
Answer: 23 µM

Question: And the GI50 (SK-MEL-5 melanoma)?
Answer: 1.6 µM

Question: What about the TGI (SK-MEL-5 melanoma) of the same compound?
Answer: 3.65 µM

Question: What about the GI50 (SK-OV-3 ovarian) of the same compound?
Answer: 5.22 µM

Question: And the TGI (SK-OV-3 ovarian)?
Answer: 17.2 µM

Question: And the GI50 (SN12C renal)?
Answer: 13.4 µM

Question: And the TGI (SN12C renal)?
Answer: 29.4 µM

Question: What about the GI50 (SNB-19 CNS) of the same compound?
Answer: 4.95 µM

Question: What about the TGI (SNB-19 CNS) of the same compound?
Answer: 17.4 µM

Question: What about the GI50 (SNB-75 CNS) of the same compound?
Answer: 3.48 µM

Question: And the TGI (SNB-75 CNS)?
Answer: 12.5 µM

Question: And the GI50 (SR leukemia)?
Answer: 1.31 µM

Question: What about the TGI (SR leukemia) of the same compound?
Answer: 3.21 µM

Question: And the GI50 (SW-620 colon)?
Answer: 4.06 µM

Question: And the TGI (SW-620 colon)?
Answer: 14.6 µM

Question: And the GI50 (T-47D breast)?
Answer: 3.02 µM

Question: What about the TGI (T-47D breast) of the same compound?
Answer: 14.4 µM

Question: What about the GI50 (TK-10 renal) of the same compound?
Answer: 10.3 µM

Question: And the TGI (TK-10 renal)?
Answer: 23.3 µM

Question: What about the GI50 (U251 glioblastoma) of the same compound?
Answer: 5.15 µM

Question: And the TGI (U251 glioblastoma)?
Answer: 17.4 µM

Question: And the GI50 (UACC-257 melanoma)?
Answer: 5.77 µM

Question: What about the TGI (UACC-257 melanoma) of the same compound?
Answer: 18.7 µM

Question: And the GI50 (UACC-62 melanoma)?
Answer: 4.59 µM

Question: What about the TGI (UACC-62 melanoma) of the same compound?
Answer: 16.4 µM

Question: And the GI50 (UO-31 renal)?
Answer: 8.31 µM

Question: What about the TGI (UO-31 renal) of the same compound?
Answer: 21.1 µM
